Test results from US6624182B1, “Hydroxyphenylvinylthiazoles” (Ciba Specialty Chemicals Corporation, priority 1999, dated 2003).

Columns and labels:
Test in all cases: Determination of the minimum inhibitory concentration (MIC value) in microtitre plates
[1] = system: P. aeruginosa; assay type: cell-based, Pseudomonas aeruginosa CIP A-22; conditions: optical density at 620 nm, 48 hours at 37° C., MIC = ≦20% growth; tested at 100; 10 and 1 ppm (approximate values); (2), (3), (4) at 120; 60; 30; 15; 7.5; 3.75 ppm
Method: (§1) Determination of the Minimum Inhibitory Concentration (MIC Value) in Microtitre Plates Nutrient Medium Casein/soybean flour/peptone bouillon for the preparation of preliminary cultures of the test bacteria and yeast. Mycological slant agar for the preliminary culture of moulds Examples of Test Microbes: Bacteria: Pseudomonas aeruginosa CIP A-22 Procedure: The test substances are pre-dissolved in dimethyl sulfoxide (DMSO) and tested in a series of dilutions of 1:2. Bacteria and yeast are cultured overnight in CASO bouillon; the mould is cultured on myco-logical slant agar and sponged off with 10 ml of 0.85% sodium chloride solution (+0.1% Triton X-100). All the test microbes are adjusted to a germ count of 1−5×10^6 KBE/ml using 0.85% sodium chloride solution. The test substances are pre-pipetted into microtitre plates in an amount of 8 μl per well. Pre-diluted microbe suspensions are diluted 1:100 in CASO bouillon (bacteria and yeast) or Sabouraud 2% glucose bouillon (mould) and added to the test substances in an amount of 192 μl per well. The test batches are incubated for 48 hours at 37° C. (bacteria and yeast) or for 5 days at 28° C. (mould). After incubation, the growth is determined by means of the clouding of the test batches (optical density) at 620 nm in a microplate reader. The concentration of substance at which (compared with the growth control) a marked inhibition of growth (≦20% growth) of the test microbes can be observed is given as the minimum inhibitory concentration (MIC value). One microtitre plate is used per test microbe and substance concentration. All substances are tested in duplicate.

[2] = system: C. albicans; assay type: cell-based, Candida albicans ATCC 10231; conditions: optical density at 620 nm, 48 hours at 37° C., MIC = ≦20% growth; tested at 100; 10 and 1 ppm (approximate values); (2), (3), (4) at 120; 60; 30; 15; 7.5; 3.75 ppm
Method: as §1, with “Yeast: Candida albicans ATCC 10231” for “Bacteria: Pseudomonas aeruginosa CIP A-22”

[3] = system: S. aureus; assay type: cell-based; conditions: optical density at 620 nm, 48 hours at 37° C., MIC = ≦20% growth; tested at 100; 10 and 1 ppm (approximate values); (2), (3), (4) at 120; 60; 30; 15; 7.5; 3.75 ppm
Description: as §1, with “Staphylococcus hominis DMS 20328” for “Pseudomonas aeruginosa CIP A-22”

[4] = system: A. niger; assay type: cell-based, Aspergillus niger ATCC 6275; conditions: optical density at 620 nm, 5 days at 28° C., MIC = ≦20% growth; tested at 100; 10 and 1 ppm (approximate values); (2), (3), (4) at 120; 60; 30; 15; 7.5; 3.75 ppm
Method: as §1, with “Mould: Aspergillus niger ATCC 6275” for “Bacteria: Pseudomonas aeruginosa CIP A-22”

[5] = system: E. coli; assay type: cell-based, Escherichia coli NCTC 8196; conditions: optical density at 620 nm, 48 hours at 37° C., MIC = ≦20% growth; tested at 100; 10 and 1 ppm (approximate values); (2), (3), (4) at 120; 60; 30; 15; 7.5; 3.75 ppm
Method: as §1, with “Escherichia coli NCTC 8196” for “Pseudomonas aeruginosa CIP A-22”

SMILES	MIC values in ppm P. aeruginosa [1] [ppm]	MIC values in ppm C. albicans [2] [ppm]	MIC values in ppm S. aureus [3] [ppm]	MIC values in ppm A. niger [4] [ppm]	MIC values in ppm E. coli [5] [ppm]
Oc1ccccc1/C=C/c1nc(-c2ccc(N3CCCC3)cc2)cs1 [Compound of formula (33)]	>100	>100	>100	>100	>100
Cc1cc(/C=C/c2nc(-c3ccc(N4CCCC4)cc3)cs2)cc(C)c1O [Compound of formula (35)]	>100	>100	>100	>100	>100
COc1cc(O)ccc1/C=C/c1nc(-c2ccc(N3CCCC3)cc2)cs1 [Compound of formula (38)]	>100	>100	>100	>100	>100
CCc1csc(/C=C/c2ccc(O)cc2)n1 [Compound of formula (39)]	>100	>100	>100	>100	>100
CCc1csc(/C=C/c2cccc(O)c2)n1 [Compound of formula (40)]	>100	>100	>100	>100	>100
CCOc1cc(/C=C/c2nc(CC)cs2)ccc1O [Compound of formula (42)]	>100	>100	>100	>100	>100
CCc1csc(/C=C/c2ccc(OC)cc2O)n1 [Compound of formula (44)]	>100	>100	>100	>100	>100
CCc1csc(/C=C/c2ccccc2O)n1 [Compound of formula (45)]	>100	>100	>100	>100	>100
CCc1csc(/C=C/c2cc(O)c(OC)c(OC)c2)n1 [Compound of formula (46)]	>100	>100	>100	>100	>100
CCc1csc(/C=C/c2cc(C)c(O)c(C)c2)n1 [Compound of formula (47)]	>100	>100	>100	>100	>100

Further lines, results first:

MIC values in ppm P. aeruginosa [1] [ppm]	MIC values in ppm C. albicans [2] [ppm]	MIC values in ppm S. aureus [3] [ppm]	MIC values in ppm A. niger [4] [ppm]	MIC values in ppm E. coli [5] [ppm]	SMILES
>100	>100	>100	>100	>100	COc1cc(/C=C/c2nc(-c3ccc(N4CCCC4)cc3)cs2)cc(O)c1OC [Compound of formula (34)]
>100	>100	>100	>100	>100	Cc1cccc(/C=C/c2nc(-c3ccc(N4CCCC4)cc3)cs2)c1O [Compound of formula (36)]
>100	>100	>100	>100	>100	CCc1csc(/C=C/c2ccc(OC)c(O)c2)n1 [Compound of formula (41)]
>100	>100	>100	>100	>100	CCc1csc(/C=C/c2ccc(O)c(OC)c2)n1 [Compound of formula (43)]
>100	>100	>100	>100	>100	CCc1csc(/C=C/c2cccc(C)c2O)n1 [Compound of formula (48)]
